In ChEMBL document CHEMBL1127517 (J Med Chem, 1994):

What was measured:
[1] = test system: Rattus norvegicus; experiment: Distribution of radio activity in tissues of unfasted male rats was measured at 60 min of time in blood after intravenous administration; format: ADME, organism-based; settings: in vivo, 1 h
[2] = test system: Rattus norvegicus; experiment: Distribution of radio activity in tissues of unfasted male rats was measured at 60 min of time in brain after intravenous administration; format: ADME, organism-based; settings: in vivo, 1 h
[3] = test system: Rattus norvegicus; experiment: Distribution of radio activity in tissues of unfasted male rats was measured at 60 min of time in heart after intravenous administration; format: ADME, organism-based; settings: in vivo, 1 h
[4] = test system: Rattus norvegicus; experiment: Distribution of radio activity in tissues of unfasted male rats was measured at 60 min of time in kidney after intravenous administration; format: ADME, organism-based; settings: in vivo, 1 h
[5] = test system: Rattus norvegicus; experiment: Distribution of radio activity in tissues of unfasted male rats was measured at 60 min of time in liver after intravenous administration; format: ADME, organism-based; settings: in vivo, 1 h
[6] = test system: Rattus norvegicus; experiment: Distribution of radio activity in tissues of unfasted male rats was measured at 60 min of time in lung after intravenous administration; format: ADME, organism-based; settings: in vivo, 1 h
[7] = test system: Rattus norvegicus; experiment: Distribution of radio activity in tissues of unfasted male rats was measured at 60 min of time in muscle after intravenous administration; format: ADME, organism-based, Muscle tissue; settings: in vivo, 1 h
[8] = test system: Rattus norvegicus; experiment: Distribution of radio activity in tissues of unfasted male rats was measured at 2 min of time in thyroid after intravenous administration; format: ADME, organism-based, Thyroid gland; settings: in vivo
[9] = test system: Rattus norvegicus; experiment: Distribution of radio activity in tissues of unfasted male rats was measured at 30 min of time in blood after intravenous administration; format: ADME, organism-based; settings: in vivo, 0.5 h
[10] = test system: Rattus norvegicus; experiment: Distribution of radio activity in tissues of unfasted male rats was measured at 30 min of time in brain after intravenous administration; format: ADME, organism-based; settings: in vivo, 0.5 h
[11] = test system: Rattus norvegicus; experiment: Distribution of radio activity in tissues of unfasted male rats was measured at 30 min of time in heart after intravenous administration; format: ADME, organism-based; settings: in vivo, 0.5 h
[12] = test system: Rattus norvegicus; experiment: Distribution of radio activity in tissues of unfasted male rats was measured at 60 min of time in skin after intravenous administration; format: ADME, organism-based; settings: in vivo, 1 h
[13] = test system: Rattus norvegicus; experiment: Distribution of radio activity in tissues of unfasted male rats was measured at 60 min of time in spleen after intravenous administration; format: ADME, organism-based; settings: in vivo, 1 h
[14] = test system: Rattus norvegicus; experiment: Distribution of radio activity in tissues of unfasted male rats was measured at 60 min of time in thyroid after intravenous administration; format: ADME, organism-based, Thyroid gland; settings: in vivo, 1 h
[15] = test system: Rattus norvegicus; experiment: Distribution of radio activity in tissues of unfasted male rats was measured as regional uptake at 120 min of time in cortex after intravenous administration; format: ADME, organism-based; settings: in vivo, 2 h
[16] = test system: Rattus norvegicus; experiment: Distribution of radio activity in tissues of unfasted male rats was measured as regional uptake at 120 min of time in hippocampus after intravenous administration; format: ADME, organism-based; settings: in vivo, 2 h
[17] = test system: Rattus norvegicus; experiment: Distribution of radio activity in tissues of unfasted male rats was measured as regional uptake at 120 min of time in striatum after intravenous administration; format: ADME, organism-based; settings: in vivo, 2 h
[18] = test system: Rattus norvegicus; experiment: Distribution of radio activity in tissues of unfasted male rats was measured as regional uptake at 2 min of time in ST/CB after intravenous administration; format: ADME, organism-based; settings: in vivo
[19] = test system: Rattus norvegicus; experiment: Distribution of radio activity in tissues of unfasted male rats was measured as regional uptake at 2 min of time in cerebellum after intravenous administration; format: ADME, organism-based; settings: in vivo
[20] = test system: Rattus norvegicus; experiment: Distribution of radio activity in tissues of unfasted male rats was measured as regional uptake at 2 min of time in cortex after intravenous administration; format: ADME, organism-based; settings: in vivo
[21] = test system: Rattus norvegicus; experiment: Distribution of radio activity in tissues of unfasted male rats was measured as regional uptake at 2 min of time in hippocampus after intravenous administration; format: ADME, organism-based; settings: in vivo
[22] = test system: Rattus norvegicus; experiment: Distribution of radio activity in tissues of unfasted male rats was measured as regional uptake at 2 min of time in striatum after intravenous administration; format: ADME, organism-based; settings: in vivo
[23] = test system: Rattus norvegicus; experiment: Distribution of radio activity in tissues of unfasted male rats was measured as regional uptake at 30 min of time in ST/CB after intravenous administration; format: ADME, organism-based; settings: in vivo, 0.5 h
[24] = test system: Rattus norvegicus; experiment: Distribution of radio activity in tissues of unfasted male rats was measured as regional uptake at 30 min of time in cerebellum after intravenous administration; format: ADME, organism-based; settings: in vivo, 0.5 h
[25] = test system: Rattus norvegicus; experiment: Distribution of radio activity in tissues of unfasted male rats was measured as regional uptake at 30 min of time in cortex after intravenous administration; format: ADME, organism-based; settings: in vivo, 0.5 h
[26] = test system: Rattus norvegicus; experiment: Distribution of radio activity in tissues of unfasted male rats was measured as regional uptake at 30 min of time in hippocampus after intravenous administration; format: ADME, organism-based; settings: in vivo, 0.5 h
[27] = test system: Rattus norvegicus; experiment: Distribution of radio activity in tissues of unfasted male rats was measured as regional uptake at 30 min of time in striatum after intravenous administration; format: ADME, organism-based; settings: in vivo, 0.5 h
[28] = test system: Rattus norvegicus; experiment: Distribution of radio activity in tissues of unfasted male rats was measured as regional uptake at 60 min of time in ST/CB after intravenous administration; format: ADME, organism-based; settings: in vivo, 1 h
[29] = test system: Rattus norvegicus; experiment: Distribution of radio activity in tissues of unfasted male rats was measured as regional uptake at 60 min of time in cerebellum after intravenous administration; format: ADME, organism-based; settings: in vivo, 1 h
[30] = test system: Rattus norvegicus; experiment: Distribution of radio activity in tissues of unfasted male rats was measured at 2 min of time in spleen after intravenous administration; format: ADME, organism-based; settings: in vivo
[31] = test system: Rattus norvegicus; experiment: Distribution of radio activity in tissues of unfasted male rats was measured at 2 min of time in liver after intravenous administration; format: ADME, organism-based; settings: in vivo

COC(=O)C1C(c2ccc(Cl)cc2)CC2CCC1N2C/C=C/I (stereo unspecified)
Injected dose/organ [1]: 5.24%
Injected dose/organ [2]: 0.28%
Injected dose/organ [3]: 0.19%
Injected dose/organ [4]: 0.58%
Injected dose/organ [5]: 1.97%
Injected dose/organ [6]: 0.4%
Injected dose/organ [7]: 12.14%
Injected dose/organ [8]: 0.06%
Injected dose/organ [9]: 7.12%
Injected dose/organ [10]: 0.58%
Injected dose/organ [11]: 0.29%
Injected dose/organ [12]: 23.9%
Injected dose/organ [13]: 0.12%
Injected dose/organ [14]: 0.97%
Dose/g [15]: 0.05%
Dose/g [16]: 0.038%
Dose/g [17]: 0.61%
Dose/g [18]: 1.18%
Dose/g [19]: 0.97%
Dose/g [20]: 1.15%
Dose/g [21]: 0.84%
Dose/g [22]: 1.15%
Dose/g [23]: 6.91%
Dose/g [24]: 0.23%
Dose/g [25]: 0.22%
Dose/g [26]: 0.26%
Dose/g [27]: 1.67%
Dose/g [28]: 15.9%
Dose/g [29]: 0.077%
Injected dose/organ [30]: 0.41%
Injected dose/organ [31]: 11.77%
